Marks after values point to notes of the source that are not given here. Positions of bridges follow the written chain, without caps; N, C: chain ends. Residues, ends and D or L forms follow the SMILES beside them.
Legend:
S. aureus ATCC 43300 [1] = assay: Cell membrane permeability, PI staining by flow cytometry; type: cell-based, Staphylococcus aureus
Protocol: Flow cytometry was used for the analysis of the effects of NZX on the penetration rate of the S. aureus cell membrane (Yang et al. [2019]). The S. aureus cells in mid-log phase were adjusted to 1 × 10^8 CFU/mL and the bacteria suspensions were treated with 1 × , 2 × and 4 × MIC of NZX for 2 h at 37 °C. In addition, the cell suspensions were incubated with 2 × MIC of NZX for 0 h, 0.5 h, 1 h and 2 h, respectively. After incubation, the cells were centrifuged at 4000 rpm at 4 °C for 5 min, washed twice with sterile PBS, and pellets were resuspended in 1 mL of PBS. Next, cells were stained with 50 µg/mL propidium iodide (PI) for 30 min in the dark at room temperature, and the proportion of cells with PI positive cells to the total cells were analyzed by flow-cytometry (BD, USA). Lincomycin and ceftiofur were used as positive controls and PBS as negative control. Three replicates for each treatment were conducted.

S. aureus ATCC 43300 [2] = assay: In vitro dose-killing curves (24 h); type: cell-based, Staphylococcus aureus
Protocol: The in vitro dose-killing curves of NZX against the test S. aureus strains were conducted as previous described (Brinch et al. [2010]), with some modification. The S. aureus cells in mid-log phage were diluted. Then, the killing curves of NZX against S. aureus strains were carried out in the 48-well plate. Specifically, a volume of 50 μL NZX (0.6–150 μM) was mixed with 450 μL of the above diluted bacterial suspension (5 × 10^5 CFU/mL), and the mixtures were incubated in the Micro Oscillator for 24 h (600 rpm, 37 °C). Subsequently, the bacteria suspensions were plated on MHA medium to count. Lincomycin and ceftiofur were set as antibiotic controls, respectively. PBS was negative control. Results were expressed as the average of three independent experiments data.

S. aureus ATCC 43300 [3] = conditions: 1 × 10^5 CFU/mL, 16–18 h, 37 °C, value marked a, already published, ref Zheng et al. [2022]; cited from earlier work
Text: Table 1 The MICs, MBCs and MPCs of NZX and antibiotics against S. aureus strains (μM) | column: S. aureus ATCC 43300 / MIC

S. agalactiae = conditions: against S. agalactiae; ref Wu et al. [2022]; cited from earlier work
Text: MPCs and PAEs were also important parameters to allow antimicrobial dosage regimens to be developed in a much more scientific approach to reduce treatment cost, and the incidences of drug resistant bacteria and avoid unnecessary drug toxicity (Mackenzie and Gould [1993]).

[4] = Pharmacokinetics in mouse mammary gland after intramammary administration; type: in vivo
Protocol: (§1) A 0.5 g of mammary tissue or milk were weighed, homogenized, and transferred to a 10 mL polypropylene centrifuge tube, respectively, extracted sequentially by adding into a 3 mL of 0.1 M of McFarland buffer and 1% trichloroacetic acid (TCA), and cleaned by a C18 solid-phase extraction (SPE) cartridge (Oasis MAX 3 cc 60 mg and Oasis HLB 3 cc 60 mg, respectively, Waters, USA). Afterwards, a 2 mL of 45% acetonitrile with 2% formic acid and 3 mL of 45% acetonitrile were used to elute the columns, respectively, the collected eluents were freeze-dried and dissolved in 200 µL of deionized water and filtered by a […] sterile filter membrane before the analysis of high-performance liquid chromatography-ultraviolet (HPLC–UV). The HPLC–UV with a C18 reverse-phase column (ZORBAX Eclipse Plus C18 4.6 mm × 250 mm, 5 µm) conditions for detecting NZX were as follows: the mobile phase consisted of A: 0.1% trifluoroacetate […] in acetonitrile and B: 0.1%TFA in water; the injection volume was 40 μL; the wavelength of UV detector was 280 nm; flow rate was 1.0 mL/min; the column temperature was 35 °C, and the elution was conducted with a linear gradient of 20–45% mobile phase A for 16 min. The linear relationship, limits of detection (LOD), limits of quantitation (LOQ), accuracy and precision were determined by adding the known concentrations of NZX into the extracted blank matrix of mammary gland. Each concentration was conducted three times.
A pharmacokinetic assessment of a single dose of NZX at 100 μg/gland was carried out using 36 individual healthy lactating mice following intramammary administration (Wang et al. [2021]). Mammary tissues were harvested at 0.083, 0.5, 1, 2, 3, 4, 6, 9, 12, 16, 20 and 24 h with three mice (six mammary in total) at each time point. The collected samples were then placed into 2 mL eppendorf tubes and stored at − 80 °C before the content determination of NZX in mammary gland by HPLC–UV. Briefly, a portion of the mammary gland tissues (0.5 g) was weighed in 2 mL eppendorf tubes, homogenized for 20 min (50 HZ and 4 °C) in 0.5 mL of PBS solution, and pretreated and purified by a MAX cartridge as described above. The pharmacokinetic parameters of NZX in mammary gland tissues were calculated by non-compartmental model using WinNonlin Phoenix version 8.1 (Pharsight Co., Mountain View, CA, USA).

S. aureus ATCC 25923 = conditions: 1 × 10^5 CFU/mL, 16–18 h, 37 °C, value marked a, already published, ref Zheng et al. [2022]; cited from earlier work
Text: Table 1 The MICs, MBCs and MPCs of NZX and antibiotics against S. aureus strains (μM) | column: S. aureus ATCC 25923 / MIC

[5] = Stability of NZX in mammary gland tissue homogenate; type: in vitro ADME; conditions: mouse, 100 μg/mL in mammary gland tissue homogenate, 37 °C, SPE then HPLC–UV 280 nm, mean peak area / initial value, read-out: residual amount of NZX in mammary tissue homogenate
Protocol: as §1
A 100 μg/mL of NZX was suspended in mammary gland tissue homogenate or milk, respectively, and then incubated at 37 °C for 0, 8, 16 and 24 h, respectively. Afterwards, samples were pretreated and quantified as the above methods. The results were expressed as a ratio of the mean peak area measured at different times divided by the mean value of the initial value.

[6] = 2 × MIC, range over 0, 0.5, 1 and 2 h
[7] = 2 h, range over 1 × MIC, 2 × MIC and 4 × MIC
[8] = mouse mammary tissue, single 100 μg/gland intramammary, healthy lactating mice, HPLC–UV, non-compartmental model

SMILES | percentage of PI-positive cells (S. aureus ATCC 43300 [1]; [6]) | percentage of PI-positive cells (S. aureus ATCC 43300 [1]; [7]) | EC50 (S. aureus ATCC 43300 [2]; Staphylococcus aureus, ATCC43300, 50% reduction in Log10 CFU at 24 h between minimum and maximum) [nM] | Cs (S. aureus ATCC 43300 [2]; concentration causing no apparent growth in Log10 CFU at 24 h vs initial inoculum) [µM] | MIC (S. aureus ATCC 43300 [3]) | MPC (S. agalactiae) [µM] | AUC, area under the concentration time curve from time 0 to 24 h [4, 8] [µg·h/g] | Cmax, peak concentration [4, 8] [µg/g] | Tmax, peak time [4, 8] [h] | T1/2, terminal elimination half-life ([4]; mouse mammary tissue, single 100 μg/gland intramammary, healthy lactating mice, HPLC–UV, non-compartmental model, three mice (six glands) per time point) [h] | tissue distribution after administration by milk duct ([4]; mouse, no detection in serum and organs (data not shown)) | MIC (S. aureus ATCC 25923) | remaining at 8 h, 100 μg/mL ([5]; 8 h) [%] | remaining at 16 h, 100 μg/mL ([5]; 16 h) [%] | remaining at 24 h, 100 μg/mL ([5]; 24 h) [%]
CO/N=C(\C(=O)N[C@@H]1C(=O)N2C(C(=O)O)=C(CSC(=O)c3ccco3)CS[C@H]12)c1csc(N)n1 [Ceftiofur] | 1.82–24.20% | 15.5–15.8% | 910 | 0.91 | – | – | – | – | – | – | – | – | – | – | –
CC[C@H](C)[C@@H]1NC(=O)[C@H](CO)NC(=O)[C@H](CCCCN)NC(=O)[C@@H]2CSSC[C@@H](C(=O)N[C@@H](Cc3ccc(O)cc3)C(=O)O)NC(=O)[C@H](CCCCN)NC(=O)[C@@H]3CSSC[C@H](NC(=O)[C@H](CCC(N)=O)NC(=O)[C@H]([C@@H](C)CC)NC(=O)[C@H](CC(=O)O)NC(=O)[C@H](CC(=O)O)NC(=O)[C@H](CCC(=O)O)NC(=O)[C@H](CO)NC(=O)[C@H](Cc4c[nH]c5ccccc45)NC(=O)[C@@H]4CCCN4C(=O)CNC(=O)[C@H](CC(N)=O)NC(=O)[C@@H](NC(=O)CNC(=O)[C@H](Cc4ccccc4)NC(=O)CN)CSSC[C@H](NC(=O)[C@H](Cc4ccc(O)cc4)NC(=O)CNC(=O)CNC(=O)[C@H](CCCCN)NC(=O)[C@H](Cc4ccc(O)cc4)NC(=O)CNC(=O)[C@H](CCCCN)NC1=O)C(=O)N[C@@H](C)C(=O)N[C@@H](CCCNC(=N)N)C(=O)NCC(=O)NCC(=O)N[C@@H](Cc1ccccc1)C(=O)N[C@@H](C(C)C)C(=O)N3)C(=O)N[C@@H](Cc1c[nH]cn1)C(=O)N[C@@H](CC(N)=O)C(=O)N[C@@H](Cc1c[nH]cn1)C(=O)N2 [NZX] (H-GFGCNGPWSEDDIQCHNHCKSIKGYKGGYCARGGFVCKCY-OH; disulfide 4-30, 15-37, 19-39; N-terminus and C-terminus assumed) | 1.91 to 75.17% | 57.1–75.1% | – | – | 0.23^a μM | 1.82 | 391 | 32.49 | 0.5 | 35.11 | only distributed into mammary gland tissues | 0.46^a μM | 72.2 | 48.4 | 47.9
